Among the test systems are HOP-92 NSCLC; HS 578T breast; PC-3 prostate; SF-539 CNS; SK-OV-3 ovarian; SNB-19 CNS; UACC-257 melanoma.
What all share (test): growth of human tumour cells (NCI), 48 h

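Five concentrations, 48 hours, 96-well plates. GI50 = concentration required for 50% inhibition of growth. TGI denotes the concentration required for complete inhibition of growth.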

Consider `COc1ccc(OC)c2c1[nH]c(=O)c1c3ccccc3cn21`, for which the GI50 was 1.5 µM in the experiment with HOP-92 NSCLC; 2.18 µM with HS 578T breast; 1.39 µM with PC-3 prostate; 1.69 µM with SF-539 CNS; 1.47 µM in the experiment with SK-OV-3 ovarian; 1.64 µM with SNB-19 CNS. The GI50 with UACC-257 melanoma was 2 µM. The TGI with HOP-92 NSCLC was 3.31 µM; with HS 578T breast, 5.06 µM; in the experiment with PC-3 prostate it was 4.21 µM; with SF-539 CNS, 3.08 µM; in the experiment with SK-OV-3 ovarian, 2.97 µM; with SNB-19 CNS, 3.4 µM. This compound yielded a TGI in the experiment with UACC-257 melanoma of 3.73 µM.

Consider `CN1CCN(C2CCN(C(=O)Nc3cc(Oc4ccc(NC(=O)C5(C(=O)Nc6ccc(F)cc6)CC5)c(F)c4)ccn3)CC2)CC1`, for which the GI50 is 0.483 µM with HOP-92 NSCLC; 0.688 µM in the experiment on HS 578T breast; 1.01 µM with PC-3 prostate; 0.994 µM with SF-539 CNS; 1.3 µM in the experiment on SK-OV-3 ovarian; 0.354 µM in the experiment with SNB-19 CNS. Further, the GI50 in the experiment on UACC-257 melanoma was 0.73 µM. Also, the TGI with HOP-92 NSCLC is more than 2.54 µM; in the experiment on HS 578T breast, more than 2.52 µM; in the experiment on PC-3 prostate, more than 3.84 µM; in the experiment with SF-539 CNS, more than 2.2 µM; in the experiment on SK-OV-3 ovarian it was more than 10 µM; in the experiment with SNB-19 CNS, more than 10 µM. In addition, the TGI in the experiment on UACC-257 melanoma stood at 2.27 µM.

For the compound `Oc1ccc(Nc2ncnc3c2sc2ncccc23)cc1`, the GI50 in the experiment on HOP-92 NSCLC is 0.08 µM; in the experiment with HS 578T breast it was more than 100 µM; with PC-3 prostate, 5.15 µM; in the experiment with SF-539 CNS it was 0.0266 µM; in the experiment with SK-OV-3 ovarian it was 0.168 µM; in the experiment on SNB-19 CNS, 0.0246 µM. The GI50 in the experiment on UACC-257 melanoma was 0.0726 µM. Moreover, the TGI was 11.6 µM in the experiment with HOP-92 NSCLC; more than 100 µM in the experiment with HS 578T breast; more than 100 µM in the experiment with PC-3 prostate; 0.293 µM with SF-539 CNS; more than 40.2 µM in the experiment on SK-OV-3 ovarian; more than 100 µM with SNB-19 CNS. For the same compound, the TGI in the experiment on UACC-257 melanoma was more than 100 µM.

Turning to `C(=NCCN1CCOCC1)=NC1CCCCC1`, the TGI in the experiment with HOP-92 NSCLC, in the experiment with HS 578T breast, with PC-3 prostate, in the experiment on SF-539 CNS, with SK-OV-3 ovarian and in the experiment on SNB-19 CNS was more than 100 µM in each case. The same compound had a TGI with UACC-257 melanoma of more than 100 µM.

In the case of `CC(=O)Nc1ccc(S(=O)(=O)N2C(=O)CCC2C(=O)Nc2ccc(Br)cc2)cc1` (stereo not drawn), the GI50 was 1.13 µM in the experiment with HOP-92 NSCLC; 3.05 µM in the experiment with HS 578T breast; 0.984 µM with PC-3 prostate; 2.45 µM in the experiment on SF-539 CNS; 3.58 µM in the experiment with SK-OV-3 ovarian; 2.38 µM in the experiment with SNB-19 CNS. Further, the GI50 in the experiment with UACC-257 melanoma was 2.1 µM. In addition, the TGI with HOP-92 NSCLC was 5.25 µM; in the experiment on HS 578T breast it was 22.5 µM; in the experiment on PC-3 prostate, 12.1 µM; in the experiment with SF-539 CNS, 6.78 µM; in the experiment with SK-OV-3 ovarian, 16.1 µM; with SNB-19 CNS, 20.2 µM. The compound further yielded a TGI with UACC-257 melanoma of 9.5 µM.

Regarding `c1ccc(-c2nnc(-c3ccccn3)s2)nc1`, the GI50 with HOP-92 NSCLC is 7.46 µM; in the experiment on HS 578T breast it was more than 100 µM; in the experiment with PC-3 prostate, more than 100 µM; with SF-539 CNS, more than 100 µM; in the experiment with SK-OV-3 ovarian it was more than 100 µM; in the experiment on SNB-19 CNS, more than 100 µM. Further, the GI50 in the experiment with UACC-257 melanoma is more than 100 µM. The TGI in the experiment on HOP-92 NSCLC, in the experiment on HS 578T breast, in the experiment with PC-3 prostate, in the experiment on SF-539 CNS, with SK-OV-3 ovarian and with SNB-19 CNS was more than 100 µM throughout. This compound gave a TGI in the experiment on UACC-257 melanoma of more than 100 µM.

As for `C=C1C(=O)OC2CC(C)C(C(CC(C)=O)OC(C)=O)=CCC12` (stereo not drawn), the TGI in the experiment with HOP-92 NSCLC is 21.2 µM; in the experiment with HS 578T breast it was more than 100 µM; in the experiment on PC-3 prostate it was 41.8 µM; in the experiment with SF-539 CNS, 69.3 µM; in the experiment with SK-OV-3 ovarian, more than 100 µM; in the experiment on SNB-19 CNS, more than 74.9 µM. In the experiment on UACC-257 melanoma, the TGI turned out to be 37.4 µM.

For `CCOC(=O)C1=CN(C)C=C(C(=O)OCC)C1c1cc(Br)c(OCC)c(OC)c1`, the GI50 is 20.5 µM with HOP-92 NSCLC; 32.6 µM with HS 578T breast; 8.29 µM in the experiment with PC-3 prostate; more than 100 µM in the experiment on SF-539 CNS; more than 100 µM with SK-OV-3 ovarian; more than 100 µM with SNB-19 CNS. The GI50 with UACC-257 melanoma was more than 100 µM. For the same compound, the TGI in the experiment on HOP-92 NSCLC, with HS 578T breast, in the experiment with PC-3 prostate, in the experiment with SF-539 CNS, in the experiment with SK-OV-3 ovarian and in the experiment on SNB-19 CNS was more than 100 µM in each case. In the experiment on UACC-257 melanoma, this compound gave a TGI of more than 100 µM.

Consider `CC1(C)S[C@@H]2[C@H](NC(=O)C3(N)CCCCC3)C(=O)N2[C@H]1C(=O)O`, for which the TGI with HOP-92 NSCLC, with HS 578T breast, in the experiment with PC-3 prostate, in the experiment with SF-539 CNS, with SK-OV-3 ovarian and in the experiment on SNB-19 CNS was more than 100 µM in each case. In the experiment with UACC-257 melanoma, this compound registered a TGI of more than 100 µM.

Turning to `O=C(O)COc1ccc2c(=O)c3sc4c(=O)c5ccccc5c(=O)c4c3c(=O)c2c1`, the GI50 in the experiment with HOP-92 NSCLC is 18.9 µM; in the experiment on HS 578T breast it was 3.4 µM; in the experiment with PC-3 prostate it was 26.8 µM; in the experiment with SF-539 CNS it was 13.2 µM; in the experiment on SK-OV-3 ovarian it was 16.6 µM; in the experiment with SNB-19 CNS, 7.51 µM. Besides, the GI50 in the experiment with UACC-257 melanoma was 16.2 µM. Further, the TGI with HOP-92 NSCLC is 43.2 µM; in the experiment with HS 578T breast, 19.2 µM; with PC-3 prostate it was more than 100 µM; in the experiment on SF-539 CNS, 26.1 µM; with SK-OV-3 ovarian it was 43.9 µM; in the experiment on SNB-19 CNS, 23.7 µM. The TGI with UACC-257 melanoma was 34.7 µM.

`COc1cc(C(=O)N2CCN(C=O)C2=S)cc(OC)c1OC`: the GI50 with HOP-92 NSCLC is 9.26 µM; in the experiment with HS 578T breast, 27.6 µM; with PC-3 prostate, 22.2 µM; with SF-539 CNS, 21.3 µM; with SK-OV-3 ovarian, 21.9 µM; with SNB-19 CNS, 28.5 µM. Also, the GI50 with UACC-257 melanoma is 19.9 µM. Moreover, the TGI is 26.2 µM in the experiment with HOP-92 NSCLC; more than 100 µM in the experiment with HS 578T breast; 58.2 µM with PC-3 prostate; 43.2 µM in the experiment on SF-539 CNS; 72.8 µM in the experiment with SK-OV-3 ovarian; 70.4 µM in the experiment with SNB-19 CNS. In the experiment with UACC-257 melanoma, this compound showed a TGI of 45.4 µM.

The record behind these values is PubChem BioAssay (NCI).
